The values below come from article PMC6685951, “Migration of Bacteriocins Across Gastrointestinal Epithelial and Vascular Endothelial Cells, as Determined Using In Vitro Simulations” (Scientific Reports, 2019).

By MIC is commonly meant the lowest concentration found to suppress growth.

Bridges are numbered along the chain shown (N, C = ends). Where no end group is shown, it is not given here.

For series [1] the following is noted: in vivo, po; cited from earlier work.
Series [2] concerns L. monocytogenes EGDe. Kind of series: Antimicrobial activity of NHS-fluorescein labelled versus unlabelled peptides (zone sizes). In kind it is cell-based, Listeria monocytogenes. Conditions: 50 µM, 20 µL spotted on LEB agar seeded with L. monocytogenes EGDe, overnight 37 °C. Here is the method: HPLC purified stock solutions of nisin A, plantaricin 423 and bacST4SA were prepared by dissolving the peptides in sterile ultrapure water. Immediately before conjugating NHS-fluorescein to the peptides, a stock solution of NHS-fluorescein was prepared by dissolving 1 mg of reagent in 100 µL DMF. The amount of NHS-fluorescein to be added to each peptide was calculated using the Eqs (2) and (3):2 mLpeptide×mgpeptide/mLpeptide×mmolpeptide/mgpeptide×15mmolNHS/mmolpeptide=mmolNHS 3 mmolNHS×473.4(MWofNHS)/mmolNHS×100µLDMF/1mg=µLNHS
The calculated concentration of NHS-fluorescein was added to the peptides and incubated on ice for 2 h. Non-reacted NHS-fluorescein was removed by Sep-Pak C18 column chromatography. Plantaricin 423 and bacST4SA were eluted with 60% acetonitrile containing 0.1% TFA and nisin A with 40% acetonitrile containing 0.1% TFA. Peptides were freeze dried and resuspended in sterile ultrapure water. Concentrations of the labelled peptides were determined with the BCA assay and diluted to 50 µM. Labelled peptides were filtered through a 0.45 µm HVLP membrane and spotted (20 µL) onto LEB agar seeded with 1% L. monocytogenes EGDe (OD600 0.1). Plates were incubated overnight at 37 °C and the fluorescent peptides visualised under a UVP 3UV Ultraviolet Lamp. Inhibition zones were measured using ImageJ software and compared to those of non-labelled peptides.

In series [3] the test system is L. monocytogenes EGDe. Type of series: cell-based, Listeria monocytogenes. The note with it: EGDe, 18 h. Here is the method:
The BCA assay was used according to the manufactures instructions to determine the concentration of the peptides. The MIC of the peptides was determined using a microtiter plate. Briefly, L. monocytogenes EGDe was inoculated into Listeria enrichment broth (LEB) and incubated overnight at 37 °C. The culture was inoculated into fresh LEB and incubated until an OD600 of 0.1 was reached. A series of peptide concentrations was prepared and 50 µL of each added per well, followed by the addition of 150 µL culture. The controls were ddH2O containing 0.1% (v/v) TFA with 150 µL culture or media. Microtiter plates were incubated at 37 °C and OD600 readings were taken at T0, T5 and T18 (hours). The MIC was determined as the lowest peptide concentration required to inhibit the growth of L. monocytogenes EGDe after 18 h.

On to `CC1(C)S[C@@H]2[C@H](NC(=O)[C@H](N)c3ccc(O)cc3)C(=O)N2[C@H]1C(=O)O` [Amoxicillin], for which the bioavailability in series [1] is 74-92%.
For the molecule `O=C(N[C@H](CO)[C@H](O)c1ccc([N+](=O)[O-])cc1)C(Cl)Cl` [Chloramphenicol], in series [1], the “time to peak blood levels” value was not above 2 h.
Regarding `CC1(C)S[C@@H]2[C@H](NC(=O)COc3ccccc3)C(=O)N2[C@H]1C(=O)O` [penicillin V], the bioavailability in series [1] is listed as 60-70%.
As to “KYYGNGVSCNKKGCSVDWGKAIGIIGNNSAANLATGGAAGWKS (disulfide 9-14) [bacST4SA]”, in series [2], the “decrease in activity of labelled versus unlabelled peptide (antimicrobial zone sizes)” value is 21%. The molecule also returned an MIC in series [3] of 10 µM.
